The structures appear in SMILES notation.

The first test relates to SW 1573. Nature of the test: relative viability (nuclei count vs DMSO), 5 days (fraction); higher = more cells survive. Conditions: first compound 0.8 µM. Summed up: (§1)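 Dosing by pin tool came one day after lung cancer cell lines were seeded in 1536-well plates, using either one drug or a fixed anchor-drug dose plus five library-drug doses (not always all listed) in √10 steps. After 5 days, nuclei were counted on 4× images. Relative viability is treated-well nuclei count divided by vehicle-well nuclei count, and values are medians of duplicate plates.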
Regarding `CCCCCCCCCCCC1=C(O)C(=O)C=C(O)C1=O` [Embelin] + CS(=O)(=O)N1CCN(Cc2cc3nc(-c4cccc5[nH]ncc45)nc(N4CCOCC4)c3s2)CC1 [Pictilisib] (partner 1 µM), the relative viability turned out to be 0.546.
As for `CCCCCCCCCCCC1=C(O)C(=O)C=C(O)C1=O` [Embelin] + Cc1nc(NC(=O)N2CCC[C@H]2C(N)=O)sc1-c1ccnc(C(C)(C)C(F)(F)F)c1 [Alpelisib] (partner 2 µM), the relative viability came to 0.966.

Still in this test, the particulars now being: first compound 2.53 µM.
Turning to `CCCCCCCCCCCC1=C(O)C(=O)C=C(O)C1=O` [Embelin] + COc1cc2c(Oc3ccc(NC(=O)C4(C(=O)Nc5ccc(F)cc5)CC4)cc3F)ccnc2cc1OCCCN1CCOCC1 [Foretinib] (partner 0.25 µM), the relative viability amounted to 1.08.
Same read-out and setting: the same measure for `CCCCCCCCCCCC1=C(O)C(=O)C=C(O)C1=O` [Embelin] + CC(=O)Nc1cccc(-n2c(=O)n(C3CC3)c(=O)c3c(Nc4ccc(I)cc4F)n(C)c(=O)c(C)c32)c1 [Trametinib] (partner 0.02 µM): 0.625; for `CCCCCCCCCCCC1=C(O)C(=O)C=C(O)C1=O` [Embelin] + CS(=O)(=O)N1CCN(Cc2cc3nc(-c4cccc5[nH]ncc45)nc(N4CCOCC4)c3s2)CC1 [Pictilisib] (partner 1 µM): 0.555; for `CCCCCCCCCCCC1=C(O)C(=O)C=C(O)C1=O` [Embelin] + Cc1nc(NC(=O)N2CCC[C@H]2C(N)=O)sc1-c1ccnc(C(C)(C)C(F)(F)F)c1 [Alpelisib] (partner 2 µM): 0.786.

The test is the same for the next values; noted with them: first compound 8 µM.
`CCCCCCCCCCCC1=C(O)C(=O)C=C(O)C1=O` [Embelin] + COc1cc2c(Oc3ccc(NC(=O)C4(C(=O)Nc5ccc(F)cc5)CC4)cc3F)ccnc2cc1OCCCN1CCOCC1 [Foretinib] (partner 0.25 µM): the relative viability is 0.948.
Same read-out and setting: to `CCCCCCCCCCCC1=C(O)C(=O)C=C(O)C1=O` [Embelin] + CC(=O)Nc1cccc(-n2c(=O)n(C3CC3)c(=O)c3c(Nc4ccc(I)cc4F)n(C)c(=O)c(C)c32)c1 [Trametinib] (partner 0.02 µM) belongs 0.603; to `CCCCCCCCCCCC1=C(O)C(=O)C=C(O)C1=O` [Embelin] + CS(=O)(=O)N1CCN(Cc2cc3nc(-c4cccc5[nH]ncc45)nc(N4CCOCC4)c3s2)CC1 [Pictilisib] (partner 1 µM), 0.527; to `CCCCCCCCCCCC1=C(O)C(=O)C=C(O)C1=O` [Embelin] + Cc1nc(NC(=O)N2CCC[C@H]2C(N)=O)sc1-c1ccnc(C(C)(C)C(F)(F)F)c1 [Alpelisib] (partner 2 µM), 0.804.

A further test deals with PC-14. The description is as above. Conditions: first compound 0.08 µM. An outline of the steps: as §1
The molecule `CCCCCCCCCCCC1=C(O)C(=O)C=C(O)C1=O` [Embelin] + COc1cc2c(Oc3ccc(NC(=O)C4(C(=O)Nc5ccc(F)cc5)CC4)cc3F)ccnc2cc1OCCCN1CCOCC1 [Foretinib] (partner 0.25 µM) showed a relative viability of 1.05.
Same read-out and setting: the same measure for `CCCCCCCCCCCC1=C(O)C(=O)C=C(O)C1=O` [Embelin] + CC(=O)Nc1cccc(-n2c(=O)n(C3CC3)c(=O)c3c(Nc4ccc(I)cc4F)n(C)c(=O)c(C)c32)c1 [Trametinib] (partner 0.02 µM): 0.728; for `CCCCCCCCCCCC1=C(O)C(=O)C=C(O)C1=O` [Embelin] + CS(=O)(=O)N1CCN(Cc2cc3nc(-c4cccc5[nH]ncc45)nc(N4CCOCC4)c3s2)CC1 [Pictilisib] (partner 1 µM): 0.669; for `CCCCCCCCCCCC1=C(O)C(=O)C=C(O)C1=O` [Embelin] + NC(=O)Nc1cc(-c2cccc(F)c2)sc1C(=O)N[C@H]1CCCNC1 [AZD7762] (partner 0.2 µM): 0.339.
Same read-out and setting: to `CCCCCCCCCCCC1=C(O)C(=O)C=C(O)C1=O` [Embelin] + Cc1nc(NC(=O)N2CCC[C@H]2C(N)=O)sc1-c1ccnc(C(C)(C)C(F)(F)F)c1 [Alpelisib] (partner 2 µM) belongs 0.9.

The same test, now with this note: first compound 0.8 µM.
The molecule `CCCCCCCCCCCC1=C(O)C(=O)C=C(O)C1=O` [Embelin] + COc1cc2c(Oc3ccc(NC(=O)C4(C(=O)Nc5ccc(F)cc5)CC4)cc3F)ccnc2cc1OCCCN1CCOCC1 [Foretinib] (partner 0.25 µM) showed a relative viability of 0.992.
The molecule `CCCCCCCCCCCC1=C(O)C(=O)C=C(O)C1=O` [Embelin] + CC(=O)Nc1cccc(-n2c(=O)n(C3CC3)c(=O)c3c(Nc4ccc(I)cc4F)n(C)c(=O)c(C)c32)c1 [Trametinib] (partner 0.02 µM) showed a relative viability of 0.839.
The same measure, in the same setting: to `CCCCCCCCCCCC1=C(O)C(=O)C=C(O)C1=O` [Embelin] + CS(=O)(=O)N1CCN(Cc2cc3nc(-c4cccc5[nH]ncc45)nc(N4CCOCC4)c3s2)CC1 [Pictilisib] (partner 1 µM) belongs 0.804.
On the same count and under the same terms, to `CCCCCCCCCCCC1=C(O)C(=O)C=C(O)C1=O` [Embelin] + NC(=O)Nc1cc(-c2cccc(F)c2)sc1C(=O)N[C@H]1CCCNC1 [AZD7762] (partner 0.2 µM) belongs 0.419; to `CCCCCCCCCCCC1=C(O)C(=O)C=C(O)C1=O` [Embelin] + Cc1nc(NC(=O)N2CCC[C@H]2C(N)=O)sc1-c1ccnc(C(C)(C)C(F)(F)F)c1 [Alpelisib] (partner 2 µM), 0.973.

Still in this test, the particulars now being: first compound 2.53 µM.
As for `CCCCCCCCCCCC1=C(O)C(=O)C=C(O)C1=O` [Embelin] + COc1cc2c(Oc3ccc(NC(=O)C4(C(=O)Nc5ccc(F)cc5)CC4)cc3F)ccnc2cc1OCCCN1CCOCC1 [Foretinib] (partner 0.25 µM), the relative viability came to 1.06.
Still for that read-out and setting: the same measure for `CCCCCCCCCCCC1=C(O)C(=O)C=C(O)C1=O` [Embelin] + CC(=O)Nc1cccc(-n2c(=O)n(C3CC3)c(=O)c3c(Nc4ccc(I)cc4F)n(C)c(=O)c(C)c32)c1 [Trametinib] (partner 0.02 µM): 0.982.
In turn, `CCCCCCCCCCCC1=C(O)C(=O)C=C(O)C1=O` [Embelin] + CS(=O)(=O)N1CCN(Cc2cc3nc(-c4cccc5[nH]ncc45)nc(N4CCOCC4)c3s2)CC1 [Pictilisib] (partner 1 µM) returned a relative viability of 1.16.
Still for that read-out and setting: the same measure for `CCCCCCCCCCCC1=C(O)C(=O)C=C(O)C1=O` [Embelin] + NC(=O)Nc1cc(-c2cccc(F)c2)sc1C(=O)N[C@H]1CCCNC1 [AZD7762] (partner 0.2 µM): 0.345; for `CCCCCCCCCCCC1=C(O)C(=O)C=C(O)C1=O` [Embelin] + Cc1nc(NC(=O)N2CCC[C@H]2C(N)=O)sc1-c1ccnc(C(C)(C)C(F)(F)F)c1 [Alpelisib] (partner 2 µM): 0.976.

The same test, now with this note: first compound 8 µM.
As to `CCCCCCCCCCCC1=C(O)C(=O)C=C(O)C1=O` [Embelin] + COc1cc2c(Oc3ccc(NC(=O)C4(C(=O)Nc5ccc(F)cc5)CC4)cc3F)ccnc2cc1OCCCN1CCOCC1 [Foretinib] (partner 0.25 µM), the relative viability stood at 1.08.
On the same count and under the same terms, the same measure for `CCCCCCCCCCCC1=C(O)C(=O)C=C(O)C1=O` [Embelin] + CC(=O)Nc1cccc(-n2c(=O)n(C3CC3)c(=O)c3c(Nc4ccc(I)cc4F)n(C)c(=O)c(C)c32)c1 [Trametinib] (partner 0.02 µM): 0.724; for `CCCCCCCCCCCC1=C(O)C(=O)C=C(O)C1=O` [Embelin] + CS(=O)(=O)N1CCN(Cc2cc3nc(-c4cccc5[nH]ncc45)nc(N4CCOCC4)c3s2)CC1 [Pictilisib] (partner 1 µM): 0.717.
`CCCCCCCCCCCC1=C(O)C(=O)C=C(O)C1=O` [Embelin] + NC(=O)Nc1cc(-c2cccc(F)c2)sc1C(=O)N[C@H]1CCCNC1 [AZD7762] (partner 0.2 µM) had a relative viability of 0.258.

(Values after the supplement of paper PMC10307832.)
